Results as given in ChEMBL document CHEMBL1154382, “Preliminary SAR analysis of novel antiproliferative N(6),5'-bis-ureidoadenosine derivatives” (2009).

Tests used:
Type in all cases: functional
Settings in all cases: values are per cent of control
LOX IMVI = test: Antiproliferative activity against human LOXIMVI cells at 10 uM assessed as cell growth inhibition relative to control
T47D = test: Antiproliferative activity against human T47D cells at 10 uM assessed as cell growth inhibition relative to control
[1] = Antiproliferative activity against human […] cells at 10 uM assessed as cell growth inhibition relative to control
MOLT-4 = test: Antiproliferative activity against human MOLT4 cells at 10 uM assessed as cell growth inhibition relative to control
NCI-H522 = test: Antiproliferative activity against human NCI-H522 cells at 10 uM assessed as cell growth inhibition relative to control
786-0 = test: Antiproliferative activity against human 786-0 cells at 10 uM assessed as cell growth inhibition relative to control
SK-OV-3 = test: Antiproliferative activity against human SKOV3 cells at 10 uM assessed as cell growth inhibition relative to control
SW-620 = test: Antiproliferative activity against human SW620 cells at 10 uM assessed as cell growth inhibition relative to control
CCRF-CEM = test: Antiproliferative activity against human CCRF-CEM cells at 10 uM assessed as cell growth inhibition relative to control
NCI-H322M = test: Antiproliferative activity against human NCI-H322M cells at 10 uM assessed as cell growth inhibition relative to control
SNB-75 = test: Antiproliferative activity against human SNB75 cells at 10 uM assessed as cell growth inhibition relative to control
HOP-62 = test: Antiproliferative activity against human HOP62 cells at 10 uM assessed as cell growth inhibition relative to control
OVCAR-5 = test: Antiproliferative activity against human OVCAR5 cells at 10 uM assessed as cell growth inhibition relative to control
U-251 = test: Antiproliferative activity against human U251 cells at 10 uM assessed as cell growth inhibition relative to control
M14 = test: Antiproliferative activity against human M14 cells at 10 uM assessed as cell growth inhibition relative to control
SK-MEL-2 = test: Antiproliferative activity against human SK-MEL-2 cells at 10 uM assessed as cell growth inhibition relative to control
COLO 205 = test: Antiproliferative activity against human COLO205 cells at 10 uM assessed as cell growth inhibition relative to control
OVCAR-3 = test: Antiproliferative activity against human OVCAR-3 cells at 10 uM assessed as cell growth inhibition relative to control
K562 = test: Antiproliferative activity against human K562 cells at 10 uM assessed as cell growth inhibition relative to control
HCT-116 = test: Antiproliferative activity against human HCT116 cells at 10 uM assessed as cell growth inhibition relative to control
IGROV-1 = test: Antiproliferative activity against human IGROV1 cells at 10 uM assessed as cell growth inhibition relative to control
UACC-257 = test: Antiproliferative activity against human UACC257 cells at 10 uM assessed as cell growth inhibition relative to control
A549 = test: Antiproliferative activity against human A549 cells at 10 uM assessed as cell growth inhibition relative to control
RXF 393 = test: Antiproliferative activity against human RXF393 cells at 10 uM assessed as cell growth inhibition relative to control
NCI-H226 = test: Antiproliferative activity against human NCI-H226 cells at 10 uM assessed as cell growth inhibition relative to control
Malme-3M = test: Antiproliferative activity against human MALME-3M cells at 10 uM assessed as cell growth inhibition relative to control
OVCAR-8 = test: Antiproliferative activity against human OVCAR8 cells at 10 uM assessed as cell growth inhibition relative to control
ACHN = test: Antiproliferative activity against human ACHN cells at 10 uM assessed as cell growth inhibition relative to control
SF-295 = test: Antiproliferative activity against human SF295 cells at 10 uM assessed as cell growth inhibition relative to control
UACC-62 = test: Antiproliferative activity against human UACC62 cells at 10 uM assessed as cell growth inhibition relative to control
SNB-19 = test: Antiproliferative activity against human SNB19 cells at 10 uM assessed as cell growth inhibition relative to control
HCC 2998 = test: Antiproliferative activity against human HCC2998 cells at 10 uM assessed as cell growth inhibition relative to control
SN12C = test: Antiproliferative activity against human SN12C cells at 10 uM assessed as cell growth inhibition relative to control
HT-29 = test: Antiproliferative activity against human HT-29 cells at 10 uM assessed as cell growth inhibition relative to control
MDA-MB-468 = test: Antiproliferative activity against human MDA-MB-468 cells at 10 uM assessed as cell growth inhibition relative to control
[2] = Antiproliferative activity against human Hs 578T cells at 10 uM assessed as cell growth inhibition relative to control
KM12 = test: Antiproliferative activity against human KM12 cells at 10 uM assessed as cell growth inhibition relative to control
SK-MEL-28 = test: Antiproliferative activity against human SK-MEL-28 cells at 10 uM assessed as cell growth inhibition relative to control
NCI-H460 = test: Antiproliferative activity against human NCI-H460 cells at 10 uM assessed as cell growth inhibition relative to control
SF-268 = test: Antiproliferative activity against human SF268 cells at 10 uM assessed as cell growth inhibition relative to control
HCT-15 = test: Antiproliferative activity against human HCT15 cells at 10 uM assessed as cell growth inhibition relative to control
MCF7 = test: Antiproliferative activity against human MCF7 cells at 10 uM assessed as cell growth inhibition relative to control
HL-60(TB) = test: Antiproliferative activity against human HL-60(TB) cells at 10 uM assessed as cell growth inhibition relative to control
PC-3 = test: Antiproliferative activity against human PC3 cells at 10 uM assessed as cell growth inhibition relative to control
MDA-MB-231 = test: Antiproliferative activity against human MDA-MB-231 cells at 10 uM assessed as cell growth inhibition relative to control
OVCAR-4 = test: Antiproliferative activity against human OVCAR4 cells at 10 uM assessed as cell growth inhibition relative to control
A498 = test: Antiproliferative activity against human A498 cells at 10 uM assessed as cell growth inhibition relative to control
SK-MEL-5 = test: Antiproliferative activity against human SK-MEL-5 cells at 10 uM assessed as cell growth inhibition relative to control
CAKI-1 = test: Antiproliferative activity against human Caki1 cells at 10 uM assessed as cell growth inhibition relative to control
EKVX = test: Antiproliferative activity against human EKVX cells at 10 uM assessed as cell growth inhibition relative to control
TK-10 = test: Antiproliferative activity against human TK10 cells at 10 uM assessed as cell growth inhibition relative to control
DU-145 = test: Antiproliferative activity against human DU145 cells at 10 uM assessed as cell growth inhibition relative to control
NCI-H23 = test: Antiproliferative activity against human NCI-H23 cells at 10 uM assessed as cell growth inhibition relative to control
UO-31 = test: Antiproliferative activity against human UO31 cells at 10 uM assessed as cell growth inhibition relative to control
BT-549 = test: Antiproliferative activity against human BT549 cells at 10 uM assessed as cell growth inhibition relative to control
SF-539 = test: Antiproliferative activity against human SF539 cells at 10 uM assessed as cell growth inhibition relative to control
HOP-92 = test: Antiproliferative activity against human HOP92 cells at 10 uM assessed as cell growth inhibition relative to control

Structure (SMILES): CCOC(=O)C[C@H]1[C@@H](O[Si](C)(C)C(C)(C)C)[C@H](n2cnc3c(N)ncnc32)O[C@@H]1COC(=O)NC
- growth, % of control at 10 µM (LOX IMVI): 88%
- growth, % of control at 10 µM (T47D): 84%
- growth, % of control at 10 µM [1]: 79%
- growth, % of control at 10 µM (MOLT-4): 55%
- growth, % of control at 10 µM (NCI-H522): 75%
- growth, % of control at 10 µM (786-0): 87%
- growth, % of control at 10 µM (SK-OV-3): 94%
- growth, % of control at 10 µM (SW-620): 104%
- growth, % of control at 10 µM (CCRF-CEM): 98%
- growth, % of control at 10 µM (NCI-H322M): 99%
- growth, % of control at 10 µM (SNB-75): 83%
- growth, % of control at 10 µM (HOP-62): 74%
- growth, % of control at 10 µM (OVCAR-5): 115%
- growth, % of control at 10 µM (U-251): 86%
- growth, % of control at 10 µM (M14): 100%
- growth, % of control at 10 µM (SK-MEL-2): 111%
- growth, % of control at 10 µM (COLO 205): 104%
- growth, % of control at 10 µM (OVCAR-3): 98%
- growth, % of control at 10 µM (K562): 86%
- growth, % of control at 10 µM (HCT-116): 81%
- growth, % of control at 10 µM (IGROV-1): 118%
- growth, % of control at 10 µM (UACC-257): 94%
- growth, % of control at 10 µM (A549): 92%
- growth, % of control at 10 µM (RXF 393): 78%
- growth, % of control at 10 µM (NCI-H226): 79%
- growth, % of control at 10 µM (Malme-3M): 96%
- growth, % of control at 10 µM (OVCAR-8): 98%
- growth, % of control at 10 µM (ACHN): 89%
- growth, % of control at 10 µM (SF-295): 92%
- growth, % of control at 10 µM (UACC-62): 77%
- growth, % of control at 10 µM (SNB-19): 92%
- growth, % of control at 10 µM (HCC 2998): 55%
- growth, % of control at 10 µM (SN12C): 96%
- growth, % of control at 10 µM (HT-29): 100%
- growth, % of control at 10 µM (MDA-MB-468): 77%
- growth, % of control at 10 µM [2]: 93%
- growth, % of control at 10 µM (KM12): 102%
- growth, % of control at 10 µM (SK-MEL-28): 106%
- growth, % of control at 10 µM (NCI-H460): 106%
- growth, % of control at 10 µM (SF-268): 97%
- growth, % of control at 10 µM (HCT-15): 87%
- growth, % of control at 10 µM (MCF7): 98%
- growth, % of control at 10 µM (HL-60(TB)): 80%
- growth, % of control at 10 µM (PC-3): 84%
- growth, % of control at 10 µM (MDA-MB-231): 85%
- growth, % of control at 10 µM (OVCAR-4): 78%
- growth, % of control at 10 µM (A498): 98%
- growth, % of control at 10 µM (SK-MEL-5): 68%
- growth, % of control at 10 µM (CAKI-1): 79%
- growth, % of control at 10 µM (EKVX): 83%
- growth, % of control at 10 µM (TK-10): 110%
- growth, % of control at 10 µM (DU-145): 100%
- growth, % of control at 10 µM (NCI-H23): 105%
- growth, % of control at 10 µM (UO-31): 95%
- growth, % of control at 10 µM (BT-549): 74%
- growth, % of control at 10 µM (SF-539): 89%
- growth, % of control at 10 µM (HOP-92): 95%
